Assays:
[1] = tested on: healthy elderly subjects (scopolamine challenge); experiment: Adaptive tracking; type: in vivo, human; settings: for Adaptive tracking: vs placebo (95% CI), scopolamine 0.3 mg i.v.
[2] = tested on: healthy elderly subjects (scopolamine challenge); experiment: N-back test in scopolamine challenge; type: in vivo, human; settings: for N-back, 0-back accuracy / N-back, 0-back reaction time / N-back, 1-back accuracy / N-back, 2-back accuracy / N-back, 2-back reaction time: vs placebo (95% CI), scopolamine 0.3 mg i.v.
[3] = tested on: healthy elderly subjects (scopolamine challenge); experiment: Saccadic eye movements in scopolamine challenge; type: in vivo, human; settings: for Saccadic inaccuracy / Saccadic reaction time: vs placebo (95% CI), scopolamine 0.3 mg i.v.
[4] = tested on: healthy elderly subjects (scopolamine challenge); experiment: Safety assessment: adverse events, vital signs, ECG, laboratory; type: in vivo, human; settings: scopolamine 0.3 mg i.v.
healthy volunteers [5] = settings: single oral doses; cited from earlier work
[6] = tested on: patients with mild-to-moderate Alzheimer's disease; settings: cited from earlier work
Plasma pharmacokinetics = settings: noncompartmental analysis
[7] = tested on: healthy elderly subjects (scopolamine challenge); experiment: Body sway meter; type: in vivo, human; settings: scopolamine alone 0.3 mg i.v.
[8] = tested on: healthy elderly subjects (scopolamine challenge); experiment: Simple reaction time task in scopolamine challenge; type: in vivo, human; settings: scopolamine alone 0.3 mg i.v.
[9] = tested on: healthy elderly subjects (scopolamine challenge); experiment: Pharmaco-electroencephalography in scopolamine challenge; type: in vivo, human; settings: scopolamine alone 0.3 mg i.v.
healthy subjects = settings: scopolamine alone, previous study; cited from earlier work
healthy volunteers [10] = settings: 0.5 mg intravenously; healthy young volunteers; cited from earlier work
[11] = DPZ placebo + EVP-6124 0.3 mg, N 12
[12] = DPZ placebo + EVP-6124 1 mg, N 11
[13] = DPZ placebo + EVP-6124 2 mg, N 12
[14] = DPZ placebo + EVP-6124 4 mg, N 12
[15] = DPZ 2.5 mg + EVP-6124 placebo, N 11
[16] = DPZ 5.0 mg + EVP-6124 placebo, N 10

O=C(N[C@H]1CN2CCC1CC2)c1cc2cccc(Cl)c2s1 [EVP-6124]
Adaptive tracking ([1]; DPZ placebo + EVP-6124 0.3 mg): −1.23 (−2.80, 0.34) P = .1200%
Adaptive tracking ([1]; DPZ placebo + EVP-6124 1 mg): 0.03 (−1.56, 1.63) P = .9671%
Adaptive tracking ([1]; DPZ placebo + EVP-6124 2 mg): −0.83 (−2.33, 0.67) P = .2691%
Adaptive tracking ([1]; DPZ placebo + EVP-6124 4 mg): −0.26 (−1.76, 1.24) P = .7281%
N-back, 0-back accuracy ([2]; DPZ placebo + EVP-6124 0.3 mg): 0.02 (−0.04, 0.08) P = .5073%
N-back, 0-back reaction time ([2]; DPZ placebo + EVP-6124 0.3 mg): 8 (−12, 29) P = .4004 ms
N-back, 1-back accuracy ([2]; DPZ placebo + EVP-6124 0.3 mg): 0.02 (−0.05, 0.10) P = .5558%
N-back, 2-back accuracy ([2]; DPZ placebo + EVP-6124 0.3 mg): −0.02 (−0.11, 0.07) P = .6878%
N-back, 2-back reaction time ([2]; DPZ placebo + EVP-6124 0.3 mg): −5 (−36, 25) P = .7210 ms
N-back, 0-back accuracy ([2]; DPZ placebo + EVP-6124 1 mg): 0.04 (−0.03, 0.10) P = .2318%
N-back, 0-back reaction time ([2]; DPZ placebo + EVP-6124 1 mg): −17 (−37, 4) P = .1085 ms
N-back, 1-back accuracy ([2]; DPZ placebo + EVP-6124 1 mg): 0.04 (−0.04, 0.12) P = .3062%
N-back, 2-back accuracy ([2]; DPZ placebo + EVP-6124 1 mg): 0.01 (−0.08, 0.10) P = .8796%
N-back, 2-back reaction time ([2]; DPZ placebo + EVP-6124 1 mg): −3 (−33, 28) P = .8693 ms
N-back, 0-back accuracy ([2]; DPZ placebo + EVP-6124 2 mg): 0.05 (−0.01, 0.11) P = .0818%
N-back, 0-back reaction time ([2]; DPZ placebo + EVP-6124 2 mg): −5 (−25, 15) P = .6209 ms
N-back, 2-back accuracy ([2]; DPZ placebo + EVP-6124 2 mg): 0.03 (−0.06, 0.13) P = .4557%
N-back, 2-back reaction time ([2]; DPZ placebo + EVP-6124 2 mg): 1 (−29, 31) P = .9305 ms
N-back, 0-back reaction time ([2]; DPZ placebo + EVP-6124 4 mg): −16 (−36, 4) P = .1151 ms
N-back, 1-back accuracy ([2]; DPZ placebo + EVP-6124 4 mg): 0.05 (−0.03, 0.12) P = .2385%
N-back, 2-back accuracy ([2]; DPZ placebo + EVP-6124 4 mg): −0.02 (−0.11, 0.07) P = .7181%
N-back, 2-back reaction time ([2]; DPZ placebo + EVP-6124 4 mg): −8 (−39, 22) P = .5733 ms
Saccadic inaccuracy ([3]; DPZ placebo + EVP-6124 0.3 mg): 0.6 (−0.2, 1.4) P = .1224%
Saccadic reaction time ([3]; DPZ placebo + EVP-6124 0.3 mg): −4 (−13, 5) P = .4018 ms
Saccadic inaccuracy ([3]; DPZ placebo + EVP-6124 1 mg): 0.0 (−0.8, 0.8) P = .9525%
Saccadic reaction time ([3]; DPZ placebo + EVP-6124 1 mg): −2 (−12, 7) P = .5871 ms
Saccadic inaccuracy ([3]; DPZ placebo + EVP-6124 2 mg): −0.1 (−0.9, 0.6) P = .7196%
Saccadic reaction time ([3]; DPZ placebo + EVP-6124 2 mg): −3 (−12, 6) P = .4605 ms
Saccadic inaccuracy ([3]; DPZ placebo + EVP-6124 4 mg): 0.3 (−0.5, 1.1) P = .4213%
Saccadic reaction time ([3]; DPZ placebo + EVP-6124 4 mg): 3 (−6, 11) P = .5707 ms
Disturbance in attention, treatment-related adverse event, subjects n (%) [4, 11]: 2 (16.7%)
Dizziness, treatment-related adverse event, subjects n (%) [4, 11]: 6 (50.0%)
Dry mouth, treatment-related adverse event, subjects n (%) [4, 11]: 8 (66.7%)
Gait disturbance, treatment-related adverse event, subjects n (%) [4, 11]: 1 (8.3%)
Headache, treatment-related adverse event, subjects n (%) [4, 11]: 1 (8.3%)
Somnolence, treatment-related adverse event, subjects n (%) [4, 11]: 6 (50.0%)
Disturbance in attention, treatment-related adverse event, subjects n (%) [4, 12]: 2 (18.2%)
Dizziness, treatment-related adverse event, subjects n (%) [4, 12]: 3 (27.3%)
Gait disturbance, treatment-related adverse event, subjects n (%) [4, 12]: 1 (9.1%)
Headache, treatment-related adverse event, subjects n (%) [4, 12]: 3 (27.3%)
Somnolence, treatment-related adverse event, subjects n (%) [4, 12]: 5 (45.5%)
Disturbance in attention, treatment-related adverse event, subjects n (%) [4, 13]: 1 (8.3%)
Dizziness, treatment-related adverse event, subjects n (%) [4, 13]: 4 (33.3%)
Dry mouth, treatment-related adverse event, subjects n (%) [4, 13]: 10 (83.3%)
Gait disturbance, treatment-related adverse event, subjects n (%) [4, 13]: 1 (8.3%)
Somnolence, treatment-related adverse event, subjects n (%) [4, 13]: 8 (66.7%)
Disturbance in attention, treatment-related adverse event, subjects n (%) [4, 14]: 2 (16.7%)
Dizziness, treatment-related adverse event, subjects n (%) [4, 14]: 5 (41.7%)
Dry mouth, treatment-related adverse event, subjects n (%) [4, 14]: 10 (83.3%)
Gait disturbance, treatment-related adverse event, subjects n (%) [4, 14]: 3 (25.0%)
Headache, treatment-related adverse event, subjects n (%) [4, 14]: 1 (8.3%)
Somnolence, treatment-related adverse event, subjects n (%) [4, 14]: 7 (58.3%)
dose at which effects on the Digit Symbol Substitution Test were most prevalent (healthy volunteers [5]): 20 mg
reason why phase III trials were halted in 2015 [6]: gastrointestinal adverse events
EVP-6124 pharmacokinetic parameters with or without donepezil (Plasma pharmacokinetics): similar

COc1cc2c(cc1OC)C(=O)C(CC1CCN(Cc3ccccc3)CC1)C2 (centres unmarked) [DPZ, donepezil, reference compound]
Adaptive tracking ([1]; DPZ 2.5 mg + EVP-6124 placebo): 1.49 (0.20, 2.77) P = .0247%
Adaptive tracking ([1]; DPZ 5 mg + EVP-placebo): 0.72 (−0.76, 2.20) P = .3297%
N-back, 0-back accuracy ([2]; DPZ 2.5 mg + EVP-6124 placebo): 0.03 (−0.05, 0.11) P = .4512%
N-back, 0-back reaction time ([2]; DPZ 2.5 mg + EVP-6124 placebo): −24 (−48, 1) P = .0615 ms
N-back, 1-back accuracy ([2]; DPZ 2.5 mg + EVP-6124 placebo): −0.00 (−0.12, 0.11) P = .9598%
N-back, 2-back accuracy ([2]; DPZ 2.5 mg + EVP-6124 placebo): 0.04 (−0.08, 0.17) P = .5034%
N-back, 2-back reaction time ([2]; DPZ 2.5 mg + EVP-6124 placebo): −27 (−70, 16) P = .2115 ms
N-back, 0-back accuracy ([2]; DPZ 5 mg + EVP-placebo): 0.04 (−0.02, 0.10) P = .1614%
N-back, 0-back reaction time ([2]; DPZ 5 mg + EVP-placebo): −18 (−36, −1) P = .0386 ms
N-back, 1-back accuracy ([2]; DPZ 5 mg + EVP-placebo): 0.03 (−0.05, 0.11) P = .4286%
N-back, 2-back accuracy ([2]; DPZ 5 mg + EVP-placebo): 0.02 (−0.08, 0.11) P = .7469%
N-back, 2-back reaction time ([2]; DPZ 5 mg + EVP-placebo): 35 (−1, 70) P = .0541 ms
Saccadic inaccuracy ([3]; DPZ 2.5 mg + EVP-6124 placebo): −1.4 (−2.7, −0.1) P = .0311%
Saccadic reaction time ([3]; DPZ 2.5 mg + EVP-6124 placebo): −4 (−20, 11) P = .5539 ms
Saccadic inaccuracy ([3]; DPZ 5 mg + EVP-placebo): 0.0 (−0.9, 1.0) P = .9433%
Saccadic reaction time ([3]; DPZ 5 mg + EVP-placebo): −11 (−20, −2) P = .0190 ms
Headache, treatment-related adverse event, subjects n (%) [4, 15]: 1 (9.1%)
Somnolence, treatment-related adverse event, subjects n (%) [4, 15]: 7 (63.6%)
Disturbance in attention, treatment-related adverse event, subjects n (%) [4, 16]: 1 (10.0%)
Dizziness, treatment-related adverse event, subjects n (%) [4, 16]: 6 (60.0%)
Dry mouth, treatment-related adverse event, subjects n (%) [4, 16]: 6 (60.0%)
Headache, treatment-related adverse event, subjects n (%) [4, 16]: 1 (10.0%)
Somnolence, treatment-related adverse event, subjects n (%) [4, 16]: 6 (60.0%)

CN1[C@@H]2C[C@@H](OC(=O)[C@H](CO)c3ccccc3)C[C@H]1[C@@H]1O[C@@H]12 [scopolamine]
performance on adaptive tracking ([1]; scopolamine alone 0.3 mg i.v.): worsened performance
performance on body sway [7]: worsened performance
performance on N-back ([2]; scopolamine alone 0.3 mg i.v.): worsened performance
performance on SRT [8]: worsened performance
EEG alpha frequency [9]: decrease
EEG beta frequency [9]: did not affect
EEG delta frequency [9]: increase
EEG theta frequency [9]: did not affect
performance on saccadic eye movements ([3]; scopolamine alone 0.3 mg i.v.): worsened performance
reduction of adaptive tracking scores (healthy subjects): 42%
cognitive effect of scopolamine (healthy volunteers [10]): significant cognitive deficits

— paper PMC6446049 (Alzheimer's & Dementia : Translational Research & Clinical …, 2019)
